Assay results as given in patent publication US20220096664A1, “STABILIZED FORMULATIONS CONTAINING IODINATED CONTRAST AGENTS AND CYCLODEXTRINS” (Verrow Pharmaceuticals, Inc., priority 2012, published 2022).
“Also recorded” adds a separate entry of the source. Where two headings read alike, the source gives them in different places.

Key:
[1] = system: bovine aortic endothelial cells; details: cited from earlier work
endothelial HMEC cells = details: incubation with sodium or potassium iodide; cited from earlier work
[2] = Photostability: iodide formed after UV light irradiation; assay type: physicochemical; details: pH 8
Description: Aqueous solutions comprising iodinated contrast agents were prepared and evaluated in a photolysis chamber as described in the ICH guidance document, Q1B Photostability Testing of New Drug Substances and Products, available from the US Food and Drug Administration, incorporated herein by reference. The solutions were placed in 1 cm×1 cm (3 mL) quartz cuvettes having 2 clear sides and 2 sides etched. Lids were placed on the cuvettes and sealed with a wrap of Parafilm® around the joint. The cuvettes were placed in a photolysis chamber, upright on a flat surface beneath and centered between two horizontal 24 inch fluorescent lamps, (GE, black light F20T12, 20 watt for ultraviolet, or Philips F20T12/CW, 20 watt for visible) placed 6 cm apart. The cuvettes were positioned such that their two clear sides were facing the two lamps.
Cuvettes were spaced ˜2 cm from each other, and no closer than 15 cm from the ends of the lamps. This positioning allowed reproducible light exposure to all cuvettes.
(§1) The lamps were switched on and the solutions irradiated for 18 to 24 hours for the ultraviolet (UV) lamps or 72 to 90 hours for the visible (VIS) light lamps. At the end of the selected irradiation time, the cuvettes were removed from the photolysis chamber and mixed by inversion 2-times. The caps were then removed and 40 microliter aliquots taken and diluted with 1 mL of an aqueous solution containing ˜0.9 mg/mL sodium thiosulfate. The thiosulfate solution converted any I2, IO3^−, and I3^− present in the solution tor such that total iodine species could be determined in one assay.
(§2) The diluted solutions were assayed by high pressure liquid chromatography (HPLC) using a 4.6×250 mm, C-18, 5 micron particle size, reversed phase column with detection at 280 nm for the contrast agent and 230 nm for the thiosulfate and the iodide ion (r). A mobile phase of 30:70 methanol:aqueous buffer (50 mM KH2PO4+7 mL/L 40% tetrabutyl ammonium hydroxide) at 0.75 mL/min was used for elution. Injection volume was 20 microliters. External standards were prepared containing each contrast agent, potassium iodide, and sodium thiosulfate solution and analyzed along with the irradiated samples. The results were reported as weight percentage iodide formed (mg iodide/mg contrast agent times 100).
The absorbance readings at 400 nm due to light exposure were plotted against time of exposure and the resulting correlation used to determine the UV and VIS light exposure. A change in absorbance reading of 0.45 was assumed equivalent to 200 watt hours/square meter for the UV light and a change of 0.51 was assumed equivalent to 1.2 million lux hours for the VIS light. The UV lamps provided 6.62 watts/square meter and the VIS lamps provided 7180 lux.
Aqueous solutions were prepared containing 50 mM contrast agent by diluting commercially available solutions with water. Tromethamine HCl buffer (TRIS), was added to solutions as necessary to increase the TRIS content to that of the commercial product before dilution.
SCD was added to the solutions at various mole ratios and the pH of the solutions adjusted to 7.4 with 0.1N hydrochloric acid or 0.1N sodium hydroxide. The solutions were irradiated with UV light for 18 hours (119 watt hours/m^2) then processed, analyzed and reported as in Example 2. The SCDs evaluated were sulfobutyl ether beta-cyclodextrin with an average degree of substitution of 7 (SBE-704CD), and two 2-hydroxypropyl beta-cyclodextrin derivatives having 6.3 (HP-6.3n/CD) and 4.3 (HP-4.3-βCD) average degrees of substitution.
Aqueous solutions were prepared containing 50 mM contrast agent by diluting commercially available solutions with distilled water. Tromethamine HCl buffer (TRIS), was added to some solutions to increase the buffer content.
The solutions were divided and SBE-7-CD added to one aliquot at a contrast agent:SCD mole ratio of 1:1. The pH of the solutions was adjusted to 5, 6, 7, 7.4 or 8 with 0.1N hydrochloric acid or sodium hydroxide. […]

[3] = assay type: physicochemical
Description: as §1, §2
Aqueous solutions were prepared containing 50 mM iodinated contrast agent, 10 mM tromethamine HCl buffer (TRIS), with and without sulfobutylether beta-cyclodextrin with an average degree of substitution-7 (SBE7-β-CD), or 2-hydroxypropyl beta-cyclodextrin with an average degree of substitution of ˜6.3 (HP6.3-β-CD) or ˜4.3 (HP4.3-β-CD). The iohexol solution was prepared by dissolving solid iohexol powder while the other solutions were prepared by diluting commercial formulated products and adding sufficient TRIS buffer to reach 10 mM. The pH of the solutions was adjusted to 7.4 with 0.1N hydrochloric acid.
Aliquots of the solutions were irradiated with visible light for 72 hours (0.52 million lux hours). Other aliquots were autoclaved for 20 minutes at 121° C., cooled to room temperature and then irradiated with ultraviolet light for 18 hours (119 watt hours/m2). The solutions were then processed, analyzed and reported as in Example 2, except that the chromatographic peaks of the contrast agents were evaluated at 300 nm for both samples and standards.
Aqueous solutions were prepared containing 50 mM iohexol, 0, 2.5, 5, 7.5, or 10 mM tromethamine HCl (TRIS) buffer, with and without 2.5 mM sulfobutylether beta-cyclodextrin with an average degree of substitution-7 (SBE7-β-CD). The pH of the solutions was adjusted to 7.4 with 0.1N hydrochloric acid and the solutions were transferred to glass vials. The vials were stoppered, crimp-capped and autoclaved for 20 minutes at 121° C. The pH of the autoclaved solutions was measured after the solutions were at room temperature.
Aliquots of the autoclaved solutions were irradiated with visible light for 72 hours (0.52 million lux hours) and other aliquots irradiated with ultraviolet light for 18 hours (119 watt hours/m2). The solutions were then processed, analyzed and reported as in Example 2, except that the chromatographic peak of the iohexol was evaluated at 300 nm for both samples and standards.
Aqueous formulations were prepared containing iodinated contrast agents at concentrations used commercially in medical procedures. Sulfobutylether-cyclodextrin, sodium salt, average degree of substitution ˜7 (SBE7CD) was added at varying agent:CD mole ratios. The formulations were placed in glass vials, sealed with rubber stoppers and aluminum crimps, and autoclaved at 121° C. for 20 minutes. […]

[4] = contrast media solutions; cited from earlier work
Beagle dog = assay: Cardiovascular electrophysiology and hemodynamics after injection into the left main coronary artery; assay type: in vivo
Description: Aqueous formulations were prepared containing 755 mg/mL iohexol without (formulation 1) or with (formulation 2) sulfobutylether β-cyclodextrin, sodium salt (average degree of substitution-7) at an iohexol:SCD mole ratio of 1:0.025. The addition of the SCD added 154 mM sodium to the solution as its counterion. The formulations also contained 0.1 mg/mL edetate calcium disodium hydrate, and 1.2 mg/mL tromethamine buffer, with the pH of each solution adjusted to 7.4 with 1N HCl. The solutions were sterilized by filtration through a 0.22 micron filter. […]
The instrumentation provided measurement of right heart pressure, left ventricular pressure, aortic pressure, cardiac output and electrocardiography (ECG). The specific parameters measured were: systolic artery pressure (SAP), mean aortic pressure (MAP), diastolic aortic pressure (DAP), left ventricular systolic pressure (LVSP), left ventricular end diastolic pressure (LVEDP), left ventricle dP/dtmax (an indirect measure of contractile force), left ventricle dP/dtmin, cardiac output (CO), systemic vascular resistance (SVR), pulmonary vascular resistance (PVR), pulmonary artery pressure (PAP), monophasic action potential duration (MAPD30%, 50%, 90%), heart rate (HR), and from the ECG; PR interval, QRS duration, QT/QTc interval, JT/JTc interval (as needed) and arrhythmogenesis.

CN(C(=O)CO)c1c(I)c(C(=O)NCC(O)CO)c(I)c(C(=O)NCC(O)CO)c1I (stereo not drawn) [iomeprol]
toxicity to bovine aortic endothelial cells ([1]; X-ray irradiated contrast agent): toxic to bovine aortic endothelial cells
toxicity to bovine aortic endothelial cells ([1]; non-irradiated contrast agent): not toxic

I [iodide]
toxicity in cultured endothelial HMEC cells (endothelial HMEC cells): causes toxicity

CC(=O)N(CC(O)CO)c1c(I)c(C(=O)NCC(O)CO)c(I)c(C(=O)NCC(O)CO)c1I (stereo not drawn) [Iohexol, iohexol]
stabilization against photolysis by UV light [2]: stabilized iohexol against photolysis by UV light
iodide degradant after UV irradiation in the presence of the SCD [3]: Less of the iodide degradant was observed in the presence of the SCD
stabilization against photolysis by visible light irradiation [3]: the SCD also stabilized the solutions against photolysis by visible light irradiation
degradation in solution after exposure to ultraviolet light [4]: formation of iodine and iodide ions
qualitative alterations in electrocardiographic morphology (Beagle dog; concomitant with injection into the coronary artery): QRS complex widening along with ST segment depression; also recorded: Scattered premature ventricular contractions
ECG morphology returned to normal after the last injection (Beagle dog; intracoronary): within five minutes
